Source: patent US10874635B2, “Tocotrienol compositions” (First Tech International Limited, priority 2011, dated 2020)

Test: Viscosity measurement of vitamin E, MCT and binary blends
Format: physicochemical
Details: 23 °C
Experimental: Viscosity of vitamin E, MCT, and their binary mixtures was measured using an advanced rheometer from TA Instruments Ltd, New Castle, Del. model number AR 2000. A cone and plate geometry was used with a steel plate radius of 40 mm and a cone angle of 2°. The gap between the cone and plate geometry was set at 100 μm. Rheological measurements were made at 23° C. The rheometer was fitted with a Peltier temperature control system, which was monitored during the experiments. For each test, approximately 1 g of vitamin E, MCT, or their binary mixtures was placed between the plates. Preliminary studies were conducted to optimize instrument parameters. Once the system was optimized, a continuous ramp method was used. The shear stress was measured at varying shear rates from 1 to 100 s−1 for a period of 5 minutes. All rheological measurements were carried out in triplicates. Data were analyzed using rheology software namely TA Rheology Advantage software, Version 2.3.
The viscosity of the blends decreased from a high of 3700 mPa·s for vitamin E alone to a low of 27 mPa·s, which is the viscosity of pure MCT. […] Therefore, two levels of vitamin E loading in the emulsion were evaluated in this study representing a high viscosity system at a 70/30 ratio and a low viscosity system at a 30/70 ratio of vitamin E to MCT. […]

viscosity: 3700 mPa·s
Substance: (±)-α-Tocopherol [vitamin E]
